We go through 24 molecules from patent US20250346585A1 (Alexion Pharmaceuticals, Inc., priority 2022, published 2025).

SMILES strings stand for the structures. pIC50: −log10 of the molar value.

Sequence of Human complement C1s enzyme (P09871 438-688 limits assumed): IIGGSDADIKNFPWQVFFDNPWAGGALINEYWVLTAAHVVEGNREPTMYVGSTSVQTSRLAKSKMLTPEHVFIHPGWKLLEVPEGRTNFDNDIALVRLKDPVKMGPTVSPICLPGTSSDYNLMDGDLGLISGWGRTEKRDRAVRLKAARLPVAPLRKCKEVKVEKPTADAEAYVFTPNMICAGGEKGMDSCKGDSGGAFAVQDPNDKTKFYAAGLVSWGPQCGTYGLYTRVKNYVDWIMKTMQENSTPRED
Sequence of Human complement C1s enzyme (P09871 16-437 partner limits assumed): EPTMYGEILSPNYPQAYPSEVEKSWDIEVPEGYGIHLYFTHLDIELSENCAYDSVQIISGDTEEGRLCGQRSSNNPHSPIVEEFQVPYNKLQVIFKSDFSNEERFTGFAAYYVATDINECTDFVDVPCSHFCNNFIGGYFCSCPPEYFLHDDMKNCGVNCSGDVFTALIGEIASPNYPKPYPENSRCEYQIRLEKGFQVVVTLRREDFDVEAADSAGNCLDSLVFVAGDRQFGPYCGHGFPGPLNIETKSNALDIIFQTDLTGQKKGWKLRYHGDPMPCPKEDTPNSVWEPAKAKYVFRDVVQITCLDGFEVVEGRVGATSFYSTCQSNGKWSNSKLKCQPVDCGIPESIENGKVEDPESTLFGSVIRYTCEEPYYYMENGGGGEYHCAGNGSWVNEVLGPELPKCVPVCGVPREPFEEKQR

The target in this experiment is Human complement C1s enzyme (Homo sapiens (Human), UniProt P09871). Description: Human C1s enzyme assay. The following applies: Human complement C1s enzyme 1.16 nM, substrate Z-L-Lys-SBzl 100 μM, assay of Example 3; read-out: IC50 (Stars). It counts as biochemical. In a few lines:
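IC50 derived by nonlinear regression of rate versus concentration, with rate taken from A405 kinetics (30 s intervals, 30 min) after adding 100 μM each Z-L-Lys-SBzl and DTNB. C1s from human serum, 1.16 nM, exposed to compound for 5 min at RT beforehand; buffer 50 mM Tris, 1 M NaCl, pH 7.5.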
On to `C[C@@H](NC(=O)[C@@H]1C[C@@H](S(C)(=O)=O)CN1C(=O)CNC(=O)c1ccc2c(c1)-c1ccccc1S2(=O)=O)c1cc(C(=N)N)cs1` [Compound 342, (2S,4R)—N—((R)-1-(4-carbamimidoylthiophen-2-yl)ethyl)-1-((5,5-dioxidodibenzo[b,d]thiophene-2-carbonyl)glycyl)-4-(methylsulfonyl) pyrrolidine-2-carboxamide], for which the negative-log IC50 (pIC50) is more than 7.00.

Regarding `COC[C@@]1(F)C[C@@H](C(=O)N[C@H](C)c2cc(C(=N)N)cs2)N(C(=O)CNC(=O)c2ccc3c(c2)sc2ccccc23)C1` [Compound 343, (2S,4R)—N—((R)-1-(4-carbamimidoylthiophen-2-yl)ethyl)-1-((dibenzo[b,d]thiophene-3-carbonyl)glycyl)-4-fluoro-4-(methoxymethyl)pyrrolidine-2-carboxamide], the pIC50 was more than 7.00.

With `COC[C@@]1(F)C[C@@H](C(=O)N[C@H](C)c2cc(C(=N)N)cs2)N(C(=O)CNC(=O)c2ccc3c(c2)C(C)(C)c2ccccc2-3)C1` [Compound 344, (2S,4R)—N—((R)-1-(4-carbamimidoylthiophen-2-yl)ethyl)-1-((9,9-dimethyl-9H-fluorene-2-carbonyl)glycyl)-4-fluoro-4-(methoxymethyl) pyrrolidine-2-carboxamide], the pIC50 is more than 7.00.

Consider `C[C@@H](NC(=O)[C@@H]1CC2(CN1C(=O)CCC(=O)c1ccc(-c3ccccc3)cc1)OCCO2)c1cc(C(=N)N)cs1` [Compound 345, (S)-7-(4-([1,1′-biphenyl]-4-yl)-4-oxobutanoyl)-N—((R)-1-(4-carbamimidoylthiophen-2-yl)ethyl)-1,4-dioxa-7-azaspiro[4.4]nonane-8-carboxamide], for which the pIC50 was more than 7.00.

In the case of `C[C@@H](NC(=O)[C@@H]1CC2(CN1C(=O)CN1Cc3ccc(-c4ccc(F)cc4F)cc3C1=O)OCCO2)c1cc(C(=N)N)cs1` [Compound 346, (S)—N—((R)-1-(4-carbamimidoylthiophen-2-yl)ethyl)-7-(2-(6-(2,4-difluorophenyl)-1-oxoisoindolin-2-yl)acetyl)-1,4-dioxa-7-azaspiro[4.4]nonane-8-carboxamide], the pIC50 was more than 7.00.

On to `C[C@@H](NC(=O)[C@@H]1CC2(CN1C(=O)CNC(=O)c1ncc(-c3ccccc3)cc1F)OCCO2)c1cc(C(=N)N)cs1` [Compound 347, (S)—N—((R)-1-(4-carbamimidoylthiophen-2-yl)ethyl)-7-((3-fluoro-5-phenylpicolinoyl)glycyl)-1,4-dioxa-7-azaspiro[4.4]nonane-8-carboxamide], for which the negative logarithm of the IC50 (pIC50) was more than 7.00.

With `C[C@@H](NC(=O)[C@@H]1C[C@@H](OC(F)F)CN1C(=O)CNC(=O)c1ccc2c(c1)C(C)(C)c1ccccc1-2)c1cc(C(=N)N)cs1` [Compound 348, (2S,4R)-N-((R)-1-(4-carbamimidoylthiophen-2-yl)ethyl)-4-(difluoromethoxy)-1-((9,9-dimethyl-9H-fluorene-2-carbonyl)glycyl) pyrrolidine-2-carboxamide], the pIC50 is more than 7.00.

On to `C[C@@H](NC(=O)[C@@H]1C[C@](F)(CF)CN1C(=O)CNC(=O)c1ccc2c(c1)sc1ccccc12)c1cc(C(=N)N)cs1` [Compound 349, (2S,4R)—N—((R)-1-(4-carbamimidoylthiophen-2-yl)ethyl)-1-((dibenzo[b,d]thiophene-3-carbonyl)glycyl)-4-fluoro-4-(fluoromethyl)pyrrolidine-2-carboxamide], for which the pIC50 is more than 7.00.

Turning to `COC[C@@]1(F)C[C@@H](C(=O)N[C@H](C)c2cc(C(=N)N)cs2)N(C(=O)CNC(=O)c2ccc3c(c2)S(=O)(=O)c2ccccc2-3)C1` [Compound 350, (2S,4R)—N—((R)-1-(4-carbamimidoylthiophen-2-yl)ethyl)-1-((5,5-dioxidodibenzo[b,d]thiophene-3-carbonyl)glycyl)-4-fluoro-4-(methoxymethyl) pyrrolidine-2-carboxamide], the pIC50 is more than 7.00.

With `C[C@@H](NC(=O)[C@@H]1C[C@@H](S(=O)(=O)C2CC2)CN1C(=O)CNC(=O)c1ccc2c(c1)-c1ccccc1C2(F)F)c1cc(C(=N)N)cs1` [Compound 351, (2S,4R)—N—((R)-1-(4-carbamimidoylthiophen-2-yl)ethyl)-4-(cyclopropylsulfonyl)-1-((9,9-difluoro-9H-fluorene-3-carbonyl)glycyl)pyrrolidine-2-carboxamide], the pIC50 is more than 7.00.

With `C[C@@H](NC(=O)[C@@H]1C[C@@H](OC(F)F)CN1C(=O)CNC(=O)c1ccc2c(c1)sc1ccccc12)c1cc(C(=N)N)cs1` [Compound 352, (2S,4R)—N—((R)-1-(4-carbamimidoylthiophen-2-yl)ethyl)-1-((dibenzo[b,d]thiophene-3-carbonyl)glycyl)-4-(difluoromethoxy)pyrrolidine-2-carboxamide], the negative logarithm of the IC50 (pIC50) was more than 7.00.

Turning to `C[C@@H](NC(=O)[C@@H]1C[C@@H](OC(F)F)CN1C(=O)CNC(=O)c1ccc2sc3ccccc3c2c1)c1cc(C(=N)N)cs1` [Compound 353, (2S,4R)—N—((R)-1-(4-carbamimidoylthiophen-2-yl)ethyl)-1-((dibenzo[b,d]thiophene-2-carbonyl)glycyl)-4-(difluoromethoxy)pyrrolidine-2-carboxamide], the pIC50 was more than 7.00.

As for `C[C@@H](NC(=O)[C@@H]1C[C@](F)(CF)CN1C(=O)CNC(=O)c1ccc2sc3ccccc3c2c1)c1cc(C(=N)N)cs1` [Compound 354, (2S,4R)—N—((R)-1-(4-carbamimidoylthiophen-2-yl)ethyl)-1-((dibenzo[b,d]thiophene-2-carbonyl)glycyl)-4-fluoro-4-(fluoromethyl)pyrrolidine-2-carboxamide], the pIC50 is more than 7.00.

Take `C[C@@H](NC(=O)[C@@H]1C[C@H](c2cccnc2)CN1C(=O)CNC(=O)c1ccc2c(c1)-c1ccccc1C2(F)F)c1cc(C(=N)N)cs1` [Compound 355, (2S,4R)—N—((R)-1-(4-carbamimidoylthiophen-2-yl)ethyl)-1-((9,9-difluoro-9H-fluorene-3-carbonyl)glycyl)-4-(pyridin-3-yl)pyrrolidine-2-carboxamide]: the pIC50 is more than 7.00.

`C[C@@H](NC(=O)[C@@H]1CC2(CN1C(=O)CNC(=O)c1ncc(-c3ccc(F)cc3F)cc1F)OCCO2)c1cc(C(=N)N)cs1` [Compound 356, (S)—N—((R)-1-(4-carbamimidoylthiophen-2-yl)ethyl)-7-((5-(2,4-difluorophenyl)-3-fluoropicolinoyl)glycyl)-1,4-dioxa-7-azaspiro[4.4]nonane-8-carboxamide]: the pIC50 was more than 7.00.

For the molecule `CC1c2ccccc2-c2ccc(C(=O)NCC(=O)N3C[C@H](OC(F)F)C[C@H]3C(=O)N[C@H](C)c3cc(C(=N)N)cs3)cc21` (stereo partly drawn) [Compound 357, (2S,4R)—N—((R)-1-(4-carbamimidoylthiophen-2-yl)ethyl)-4-(difluoromethoxy)-1-((9-methyl-9H-fluorene-2-carbonyl)glycyl)pyrrolidine-2-carboxamide], the pIC50 is more than 7.00.

With `C[C@@H](NC(=O)[C@@H]1C[C@H](c2ccccn2)CN1C(=O)CNC(=O)c1ccc2c(c1)-c1ccccc1C2(F)F)c1cc(C(=N)N)cs1` [Compound 358, (2S,4S)—N—((R)-1-(4-carbamimidoylthiophen-2-yl)ethyl)-1-((9,9-difluoro-9H-fluorene-3-carbonyl)glycyl)-4-(pyridin-2-yl)pyrrolidine-2-carboxamide], the negative logarithm of the IC50 (pIC50) is more than 7.00.

Regarding `COC[C@@]1(F)C[C@@H](C(=O)N[C@H](C)c2cc(C(=N)N)cs2)N(C(=O)CNC(=O)c2ccc3c(c2)oc2ccccc23)C1` [Compound 360, (2S,4R)—N—((R)-1-(4-carbamimidoylthiophen-2-yl)ethyl)-1-((dibenzo[b,d]furan-3-carbonyl)glycyl)-4-fluoro-4-(methoxymethyl)pyrrolidine-2-carboxamide], the pIC50 was more than 7.00.

As for `C[C@@H](NC(=O)[C@@H]1C[C@@H](OC(F)F)CN1C(=O)CNC(=O)c1ccc2c(c1)oc1ccccc12)c1cc(C(=N)N)cs1` [Compound 361, (2S,4R)—N—((R)-1-(4-carbamimidoylthiophen-2-yl)ethyl)-1-((dibenzo[b,d]furan-3-carbonyl)glycyl)-4-(difluoromethoxy)pyrrolidine-2-carboxamide], the pIC50 was more than 7.00.

Take `C[C@@H](NC(=O)[C@@H]1C[C@@H](OC(F)F)CN1C(=O)CNC(=O)c1ccc2c(c1)S(=O)(=O)c1ccccc1-2)c1cc(C(=N)N)cs1` [Compound 362, (2S,4R)—N—((R)-1-(4-carbamimidoylthiophen-2-yl)ethyl)-4-(difluoromethoxy)-1-((5,5-dioxidodibenzo[b,d]thiophene-3-carbonyl)glycyl) pyrrolidine-2-carboxamide]: the pIC50 is more than 7.00.

For the molecule `COC[C@@]1(F)C[C@@H](C(=O)N[C@H](C)c2cc(C(=N)N)cs2)N(C(=O)CNC(=O)c2ccc3c(c2)C(C)c2ccccc2-3)C1` (stereo partly drawn) [Compound 363, (2S,4R)—N—((R)-1-(4-carbamimidoylthiophen-2-yl)ethyl)-4-fluoro-4-(methoxymethyl)-1-((9-methyl-9H-fluorene-2-carbonyl)glycyl)pyrrolidine-2-carboxamide], the negative logarithm of the IC50 (pIC50) is more than 7.00.

For `COC[C@@]1(F)C[C@@H](C(=O)N[C@H](C)c2cc(C(=N)N)cs2)N(C(=O)CNC(=O)c2cccc(-c3ccc(F)cc3)c2)C1` [Compound 364, (2S,4R)—N—((R)-1-(4-carbamimidoylthiophen-2-yl)ethyl)-4-fluoro-1-((4′-fluoro-[1,1′-biphenyl]-3-carbonyl)glycyl)-4-(methoxymethyl)pyrrolidine-2-carboxamide], the pIC50 was more than 7.00.

Consider `C[C@@H](NC(=O)[C@@H]1CC2(CN1C(=O)CN1Cc3cc(-c4ccccc4)ccc3C1=O)OCCO2)c1cc(C(=N)N)cs1` [Compound 365, (S)—N—((R)-1-(4-carbamimidoylthiophen-2-yl)ethyl)-7-(2-(1-oxo-5-phenylisoindolin-2-yl)acetyl)-1,4-dioxa-7-azaspiro[4.4]nonane-8-carboxamide], for which the pIC50 was more than 7.00.

On to `C[C@@H](NC(=O)[C@@H]1CC2(CN1C(=O)CN1Cc3cc(-c4ccc(F)cc4F)ccc3C1=O)OCCO2)c1cc(C(=N)N)cs1` [Compound 366], for which the negative-log IC50 (pIC50) was more than 7.00.

In general, pIC50 refers to −log10 of the IC50, conventionally taken in molar units.
